Literature values in patent publication US20250303004A1, “RADIOPHARMACEUTICAL COMPOSITIONS FOR LOW TOXICITY ACTINIUM IN TARGETED RADIONUCLIDE THERAPY” (Curium US LLC, priority 2021, published 2025).
Read-outs that look alike come from different tables or passages of the source.

Test system: men with mCRPC
Settings: cited from earlier work
[1] = 73 patients, percentage in parentheses
[2] = Sathekge 2020, 73 patients, 4-8 MBq per cycle

O=C(O)CC[C@H](NC(=O)N[C@@H](CCCCNC(=O)[C@H](Cc1ccc2ccccc2c1)NC(=O)[C@H]1CC[C@H](CNC(=O)CN2CCN(CC(=O)O)CCN(CC(=O)O)CCN(CC(=O)O)CC2)CC1)C(=O)O)C(=O)O [^225Ac-PSMA-617, metal not drawn]
Median PFS (73 patients, 95% CI, 13.1-17.4 months): 15.2 months
Median OS (73 patients, 95% CI, 16.2-19.9 months): 18 months
Anemia, Grade I or II (73 patients): 22 patients
Anemia, Grade IV (73 patients): 0 patients
Anorexia, Grade I or II (73 patients): 23 patients
Anorexia, Grade III (73 patients): 0 patients
Anorexia, Grade IV (73 patients): 0 patients
Constipation, Grade I or II (73 patients): 19 patients
Constipation, Grade III (73 patients): 0 patients
Constipation, Grade IV (73 patients): 0 patients
Dry eyes, Grade I or II (73 patients): 4 patients
Dry eyes, Grade III (73 patients): 0 patients
Dry eyes, Grade IV (73 patients): 0 patients
Dry mouth, Grade I or II (73 patients): 62 patients
Dry mouth, Grade III (73 patients): 0 patients
Dry mouth, Grade IV (73 patients): 0 patients
Dysgeusia, Grade I or II (73 patients): 4 patients
Dysgeusia, Grade III (73 patients): 0 patients
Dysgeusia, Grade IV (73 patients): 0 patients
Dyspepsia, Grade I or II (73 patients): 3 patients
Dyspepsia, Grade III (73 patients): 0 patients
Dyspepsia, Grade IV (73 patients): 0 patients
Dysuria, Grade I or II (73 patients): 13 patients
Dysuria, Grade III (73 patients): 0 patients
Dysuria, Grade IV (73 patients): 0 patients
Fatigue, Grade I or II (73 patients): 37 patients
Fatigue, Grade III (73 patients): 0 patients
Fatigue, Grade IV (73 patients): 0 patients
Hypoalbuminemia, Grade I or II (73 patients): 14 patients
Hypoalbuminemia, Grade III (73 patients): 0 patients
Hypoalbuminemia, Grade IV (73 patients): 0 patients
Leukopenia, Grade I or II (73 patients): 7 patients
Leukopenia, Grade IV (73 patients): 0 patients
Nausea, Grade I or II (73 patients): 15 patients
Nausea, Grade III (73 patients): 0 patients
Nausea, Grade IV (73 patients): 0 patients
Renal Failure, Grade I or II (73 patients): 18 patients
Thrombocytopenia, Grade I or II (73 patients): 6 patients
Thrombocytopenia, Grade IV (73 patients): 0 patients
Vomiting, Grade I or II (73 patients): 4 patients
Vomiting, Grade III (73 patients): 0 patients
Vomiting, Grade IV (73 patients): 0 patients
Weight loss, Grade I or II (73 patients): 28 patients
Weight loss, Grade III (73 patients): 0 patients
Weight loss, Grade IV (73 patients): 0 patients
patients with negative ^68Ga-PSMA PET/CT images post therapy (73 patients): 29%
Anemia, Grade III [1]: 5 (7) patients
Leukopenia, Grade III [1]: 2 (3) patients
Renal Failure, Grade III [1]: 3 (4) patients
Renal Failure, Grade IV [1]: 2 (3) patients
Thrombocytopenia, Grade III [1]: 1 (1) patients
Biochemical response PSA50 (≥50% PSA decline) [2]: 70%
OS [2]: 18.0 mo
PFS [2]: 15.2 mo
Biochemical response PSA50 (≥50% PSA decline) (Sathekge 2020, 73 patients, 4-8 MBq per cycle, listed as PSMA-617): 70%
patients with any decline in PSA (at the end of therapy, 73 patients): 82%
patients who had passed away (of 73): 13 patients
patients with disease progression (of 73): 23 patients
